Data on 25 compounds can be found in patent EP4624465A1, “COMPOUND SERVING AS DDR1 KINASE INHIBITOR, AND MEDICINE” (Nippon Shinyaku Co., Ltd., priority 2022, dated 2024).

The target of assay [1] is T1, DDR1 kinase (Homo sapiens, UniProt Q08345). The assay is described as follows: Evaluation of DDR1 kinase inhibition (LANCE Ultra TR-FRET kinase assay). Also noted: purchased Carna Biosciences 08-113. Type of assay: biochemical. Particulars: DDR1 protein 0.5 nM, LANCE Ultra ULight-poly GAT substrate, 2 hours at room temperature, duplicate; read-out: DDR-1 IC50. In general terms: Time-resolved FRET reads energy transfer from a long-lived donor to a nearby acceptor.
Target sequence in this assay (Q08345 19-876 isoform Q08345-2 limits assumed): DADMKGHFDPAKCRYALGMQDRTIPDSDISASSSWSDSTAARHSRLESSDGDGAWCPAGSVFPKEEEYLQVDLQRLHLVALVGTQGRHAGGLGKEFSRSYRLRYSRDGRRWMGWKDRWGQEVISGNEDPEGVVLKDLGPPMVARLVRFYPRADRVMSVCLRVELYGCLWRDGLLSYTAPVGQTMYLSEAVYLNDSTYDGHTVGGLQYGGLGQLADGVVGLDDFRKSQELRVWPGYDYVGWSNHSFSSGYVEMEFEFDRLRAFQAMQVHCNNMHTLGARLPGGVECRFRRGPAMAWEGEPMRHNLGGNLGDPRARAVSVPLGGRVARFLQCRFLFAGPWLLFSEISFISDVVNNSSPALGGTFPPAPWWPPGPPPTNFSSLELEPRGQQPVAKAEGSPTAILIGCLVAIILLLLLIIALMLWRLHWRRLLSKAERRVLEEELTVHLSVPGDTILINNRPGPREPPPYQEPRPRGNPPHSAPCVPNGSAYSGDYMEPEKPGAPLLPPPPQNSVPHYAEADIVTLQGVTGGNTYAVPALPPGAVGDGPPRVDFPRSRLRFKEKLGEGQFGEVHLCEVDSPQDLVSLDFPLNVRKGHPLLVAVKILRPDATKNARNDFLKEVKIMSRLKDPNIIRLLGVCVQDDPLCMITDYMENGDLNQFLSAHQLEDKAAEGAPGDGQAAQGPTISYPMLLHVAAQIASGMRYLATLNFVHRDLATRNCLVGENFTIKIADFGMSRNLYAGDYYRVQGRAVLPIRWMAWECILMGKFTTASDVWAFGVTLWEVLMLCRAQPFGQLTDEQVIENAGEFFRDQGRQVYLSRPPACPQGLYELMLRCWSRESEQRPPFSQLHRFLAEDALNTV

Assay [2] concerns the target T1, DDR1 kinase. The assay is described as follows: Evaluation of DDR1 kinase inhibition in DDR1-expressing U2OS cells (type I collagen stimulation, PathHunter detection). Also noted: host or cells: U2OS. Type of assay: cell-based. Particulars: type I collagen 50 µg/mL stimulation, duplicate, read-out: DDR-1 IC50. The procedure:
The solution was further diluted in an E-MEM medium (Fujifilm Wako Pure Chemicals, 051-07615) containing 10% fetal bovine serum (FBS, Gibco, 10270106) to 60000, 6000, 600, 60, 6, and 0.6 nM to prepare test substance solutions. 2. […] On the following day, after the plate was left at room temperature for 1 hour, a detection solution was added to the wells at […] according to the handling instructions for the PathHunter® Detection Kit (DiscoverX, 93-0001), and then incubated at room temperature for 2 hours. After the incubation, a luminescence intensity was measured by Envision (Perkin-Elmer). Tests were performed in duplicate. 3.
Target sequence in this assay (Q08345 19-913): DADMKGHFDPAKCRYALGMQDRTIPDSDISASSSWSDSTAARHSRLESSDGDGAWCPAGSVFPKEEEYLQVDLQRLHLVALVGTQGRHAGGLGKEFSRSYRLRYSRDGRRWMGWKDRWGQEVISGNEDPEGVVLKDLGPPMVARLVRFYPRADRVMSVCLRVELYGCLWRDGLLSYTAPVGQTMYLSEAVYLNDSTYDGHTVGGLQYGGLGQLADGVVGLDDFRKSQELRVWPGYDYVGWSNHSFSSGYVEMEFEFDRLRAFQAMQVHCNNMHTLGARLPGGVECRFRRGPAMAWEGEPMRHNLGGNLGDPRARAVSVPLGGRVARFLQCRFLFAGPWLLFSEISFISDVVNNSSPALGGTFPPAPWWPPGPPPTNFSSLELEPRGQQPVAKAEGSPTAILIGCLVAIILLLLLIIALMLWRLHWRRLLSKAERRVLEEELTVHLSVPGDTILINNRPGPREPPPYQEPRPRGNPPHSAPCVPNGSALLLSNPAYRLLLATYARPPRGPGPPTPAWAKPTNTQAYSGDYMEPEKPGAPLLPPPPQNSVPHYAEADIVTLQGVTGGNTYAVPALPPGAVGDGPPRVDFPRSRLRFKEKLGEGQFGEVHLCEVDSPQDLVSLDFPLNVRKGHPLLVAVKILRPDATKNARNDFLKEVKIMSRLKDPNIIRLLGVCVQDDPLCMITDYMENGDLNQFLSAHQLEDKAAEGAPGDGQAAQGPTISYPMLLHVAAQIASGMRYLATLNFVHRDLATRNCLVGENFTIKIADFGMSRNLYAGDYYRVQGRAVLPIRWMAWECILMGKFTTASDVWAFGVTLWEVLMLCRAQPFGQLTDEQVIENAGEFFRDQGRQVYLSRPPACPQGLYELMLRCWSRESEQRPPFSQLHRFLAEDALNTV

Where a name gives a salt, the structure may show the parent alone.

Regarding `C[C@@H](N(C)C(=O)Cn1nc(C2CN(C(=O)c3cc(N)ncc3F)C2)c2ccccc21)C(F)(F)F` [Compound E-262, 2-{3-[1-(2-amino-5-fluoropyridine-4-carbonyl)azetidin-3-yl]-1H-indazol-1-yl}-N-methyl-N-[(2R)-1,1,1-trifluoropropan-2-yl]acetamide], the half-inhibitory concentration (IC50) in assay [1] worked out at 9.3 nM; in assay [2], 20 nM.
Taken in the same sequence, the figures for `O=C(Cn1nc(C2CN(C(=O)c3ccnc(NC4CCC4)c3)C2)c2c(F)cccc21)NCC(F)(F)F` [Compound E-68, 2-(3-{1-[2-(cyclobutylamino)pyridine-4-carbonyl]azetidin-3-yl}-4-fluoro-1H-indazol-1-yl)-N-(2,2,2-trifluoroethyl)acetamide hydrochloride] were 3.8 nM and 8 nM.
For `Nc1cc(C(=O)N2CC(c3nn(CC(=O)N4CCC[C@@H]4C(F)(F)F)c4cc(F)cc(F)c34)C2)ccn1` [Compound E-50, 2-{3-[1-(2-aminopyridine-4-carbonyl)azetidin-3-yl]-4,6-difluoro-1H-indazol-1-yl]-1-[(2R)-2-(trifluoromethyl)pyrrolidin-1-yl]ethan-1-one], in that order: 28 nM and 1900 nM.
For the compound `Nc1cc(C(=O)N2CC(c3nn(Cc4cn(CC5CC(F)(F)C5)nn4)c4cccc(F)c34)C2)ccn1` [Compound E-19, 4-{3-[1-({1-[(3,3-difluorocyclobutyl)methyl]-1H-1,2,3-triazol-4-yl}methyl)-4-fluoro-1H-indazol-3-yl]azetidine-1-carbonyl}pyridin-2-amine hydrochloride], the IC50 in assay [1] came to 56 nM; in assay [2], 84 nM.
With `Cc1nc(NC2CC2)sc1C(=O)N1CC(c2nn(CC(=O)N3CCC[C@H]3C(F)(F)F)c3cc(F)cc(F)c23)C1` [Compound E-99, 2-(3-{1-[2-(cyclopropylamino)-4-methyl-1,3-thiazole-5-carbonyl]azetidin-3-yl}-4,6-difluoro-1H-indazol-1-y1)-1-[(2S)-2-(trifluoromethyl)pyrrolidin-1-yl]ethan-1-one], the IC50 in assay [1] was 40 nM; in assay [2], 150 nM.
Taken in the same sequence, the figures for `CC(C)N(C)C(=O)Cn1nc(C2CN(C(=O)c3cc(N)ncc3F)C2)c2ccccc21` [Compound E-253, 2-{3-[1-(2-amino-5-fluoropyridine-4-carbonyl)azetidin-3-yl]-1H. indazol-1-yl}-N-methyl-N-(propan-2-yl)acetamide] were 9.5 nM and 170 nM.
On to `C[C@@H]1COCCN1C(=O)Cn1nc(C2CN(C(=O)c3ccnc(N)c3)C2)c2c(F)cc(F)cc21` [Compound E-80, 2-{3-[1-(2-aminopyridine-4-carbonyl)azetidin-3-yl]-4,6-difluoro-1H-indazol-1-yl}-1-[(3R)-3-methylmorpholin-4-yl]ethan-1-one hydrochloride], for which the IC50 stood at 36 nM in assay [1] and 4200 nM in assay [2].
On to `COC[C@@H]1CCCN1C(=O)Cn1nc(C2CN(C(=O)c3ccnc(N)c3)C2)c2ccccc21` [Compound E-228, 2-{3-[1-(2-aminopyridine-4-carbonyl)azetidin-3-yl}-1H-indazol-1-yl}-1-[(2S)-2-(methoxymethyl)pyrrolidin-1-yl]ethan-1-one], for which the IC50 in assay [1] was determined as 9 nM; in assay [2] it was 95 nM.
Consider `Nc1cc(C(=O)N2CC(c3nn(CC(=O)NC4CC4(F)F)c4ccccc34)C2)c(F)cn1` (stereo not shown) [Compound E-248, 2-{3-[1-(2-amino-5-fluoropyridine-4-carbonyl)azetidin-3-yl]-1H-indazol-1-yl}-N-(2,2-difluorocyclopropyl)acetamide], for which the IC50 came to 11 nM in assay [1] and 510 nM in assay [2].
For `CN(C(=O)Cn1nc(C2CN(C(=O)c3cc(N)ncc3F)C2)c2ccccc21)C1CCOCC1` [Compound E-255, 2-{8-[1-(2-amino-5-fluoropyridine-4-carbonyl)azetidin-8-yl]-1H-indazol-1-yl}-N-methyl-N-(oxan-4-yl)acetamide], the IC50 turned out to be 22 nM in assay [1] and 180 nM in assay [2].
On to `C[C@H](N(C)C(=O)Cn1nc(C2CN(C(=O)c3cc(N)ncc3F)C2)c2ccccc21)C(F)(F)F` [Compound E-261, 2-{3-[1-(2-amino-5-fluoropyridine-4-carbonyl)azetidin-3-yl]-1H-indazol-1-yl}-N-methyl-N-[(2S)-1,1,1-trifluoropropan-2-yl]acetamide], for which the figures for the half-inhibitory concentration (IC50) in assay [1] and in assay [2] were 4.6 nM and 6 nM, respectively.
As for `O=C(c1ccc2[nH]nnc2c1)N1CC(c2nn(CC(=O)N3CCC[C@H]3C(F)(F)F)c3cc(F)cc(F)c23)C1` [Compound E-169, 2-{3-[1-(1H-1,2,3-benztriazole-5-carbonyl)azetidin-3-yl]-4,6-difluoro-1H-indazol-1-yl}-1-[(2S)-2-(trifluoromethyl)pyrrolidin-1-yl]ethan-1-one], the IC50 in assay [1] was found to be 9.8 nM; in assay [2], 1100 nM.
Take `Nc1cc(C(=O)N2CCC(c3nn(CC(=O)N4CCO[C@H](C(F)(F)F)C4)c4cccc(F)c34)CC2)ccn1` [Compound E-90, 2-{3-[1-(2-aminopyridine-4-carbonyl)piperidin-4-yl]-4-fluoro-1H-indazol-1-yl]-1-[(2S)-2-(trifluoromethyl)morpholin-4-yl]ethan-1-one]: the IC50 in assay [1] came out at 7.4 nM; in assay [2], 96 nM.
As to `Nc1cc(C(=O)N2CC(c3nn(Cc4nc(C(F)(F)F)no4)c4cccc(F)c34)C2)ccn1` [Compound E-115, 4-[3-(4-fluoro-1-{[3-(trifluoromethyn-1,2,4-oxadiazol-5-yl]methyl}-1H-indazol-3-yl)azetidine-1-carbonyl]pyridin-2-amine hydrochloride], the IC50 in assay [1] is 8.6 nM; in assay [2] it was 250 nM.
`Nc1nccc(C(=O)N2CC(c3nn(CC(=O)N4CCC[C@H]4C(F)(F)F)c4ccccc34)C2)c1F` [Compound E-196, 2-{3-[1-(2-amino-3-fluoropyridine-4-carbonyl)azetidin-3-yl]-1H-indazol-1-yl}-1-[(28)-2-(trifluoromethyl)pyrrolidin-1-yl]ethan-1-one]: the IC50 in assay [1] was 2.8 nM; in assay [2] it was 43 nM.
On to `O=C(c1cn[nH]c1)N1CC(c2nn(CC(=O)N3CCC[C@H]3C(F)(F)F)c3cc(F)cc(F)c23)C1` [Compound E-164, 2-(4,6-difluoro-3-[1-(1H-pyrazole-4-carbonyl)azetidin-3-yl]-1H-indazol-1-yl}-1-[(28)-2-(trifluoromethyl)pyrrolidin-1-yl]ethan-1-one], for which the half-maximal inhibitory concentration (IC50) in assay [1] was 200 nM.
Same read-out and setting: then `Nc1cc(C(=O)N2CC(c3nn(CC4CN(c5ccccc5)C4)c4cc(F)cc(F)c34)C2)ccn1` [Compound E-157, 4-(3-{4,6-difluoro-1-[(1-phenylazetidin-3-yl)methyl)-1H-indazol-3-yl}azetidine-1-carbonyl)pyridin-2-amine], with 350 nM; and `Nc1cc(C(=O)N2CC(c3nn(CC(=O)N4CCC[C@H]4C(F)(F)F)c4ccccc34)C2)c(Cl)cn1` [Compound E-210, 2-{3-[1-(2-amino-5-chloropyridine-4-carbonyl)azetidin-3-yl]-1H-indazol-1-yl]-1-[(2S)-2-(trifluoromethyl)pyrrolidin-1-yl]ethan-1-one], with 3.5 nM.
For `Cc1cc2c(C3CN(C(=O)c4ccnc(N)c4)C3)nn(Cc3ccc(C(F)(F)F)cc3)c2cn1` [Compound E-168, 4-[3-(5-methyl-1-{[4-(trifluoromethyl)phenyl]methyl]-1H-pyrazolo[3,4-c]pyridin-3-yl)azetidine-1-carbonyl]pyridin-2-amine], the half-maximal inhibitory concentration (IC50) in assay [1] amounted to 64 nM.
The same measure, in the same setting: then `Nc1cc(C(=O)N2CC(c3nn(CC(=O)N4CCOC[C@H]4C(F)(F)F)c4cc(F)cc(F)c34)C2)ccn1` [Compound E-123, 2-{3-[1-(2-aminopyridine-4-carbonyl)azetidin-3-yl]-4,6-difluoro-1H-indazol-1-yl}-1-[(3S)-3-(trifluoromethyl)morpholin-4-yl]ethan-1-one], with 8.8 nM; and `Nc1cc(C(=O)N2CC(c3nn(Cc4noc(C(F)(F)F)n4)c4ccccc34)C2)ccn1` [Compound E-217, 4-[3-(1-{[5-(trifluoromethyl)-1,2.4-oxadiazol-3-yl]methyl}-1 H-indazol-3-yl)azetidine-1-carbonyl]pyridin-2-amine], with 32 nM.
Regarding `CC(C)(C)OC(=O)Cn1nc(C2CN(C(=O)c3cc(N)ncc3F)C2)c2ccccc21` [Compound E-220, tert-butyl 2-{3-[1-(2-amino-5-fluoropyridine-4-carbony)azetidin-3-yl]-1H-indazol-1-yl}acetate], in assay [1], the IC50 is 3.6 nM.
As for `Nc1cc(C(=O)N2CC(c3nn(Cc4cn(CC(F)(F)F)nn4)c4cccc(F)c34)C2)ccn1` [Compound E-52, 4-[3-(1-{[1-(2,2,2-trifluoroethyl)-1H-1,2,3-triazol-4-yl]methyl]-4-fluoro-1H-indazol-3-yl)azetidine-1-carbonyl]pyridin-2-amine hydrochloride], in assay [1], the half-inhibitory concentration (IC50) came to 43 nM.
Still for that read-out and setting: then `CC(C)(NC(=O)Cn1nc(C2CN(C(=O)c3ccnc(N)c3)C2)c2ccccc21)C1CC1` [Compound E-234, 2-{3-[1-(2-aminopyridine-4-carbonyl)azetidin-3-yl]-1H-indazol-1-yl}-N-(2-cyclopropylpropan-2-yl)acetamide], with 7.9 nM; and `Nc1cc(C(=O)N2CC(c3nn(CC(=O)N4CCCc5ccccc54)c4cc(F)cc(F)c34)C2)ccn1` [Compound E-158, 2-{3-[1-(2-aminopyridine-4-carbonyl)azetidin-3-yl]-4,6-difluoro-1H-indazol-1-yl}-1-(1,2,3,4-tetrahydroquinolin-1-yl)ethan-1-one], with 0.6 nM.

Broadly, the IC50 is the concentration at which inhibition is half-maximal.
